This is an account of results in patent publication US20260096556A1, “AGRICULTURAL METHODS” (priority 2022, published 2026).

The test has as its system Phakopsora pachyrhizi. As to the kind of experiment: Field trials: foliar spray on soybean plants, severity of infection from Phakopsora pachyrhizi. In kind it is in vivo. Particulars: for % control (% reduction of the area under the disease pressure curve): Brazil, soybean, 3 foliar applications, 75 g ai/ha. As to the method:
Various compounds were formulated (a commercial EC250 formulation for prothioconazole, an SC100 formulation for compound X.04), diluted into a spray solution including an adjuvant, and applied to soybean plants in a foliar broadcast spray using a handheld horizontal boom sprayer. Three applications were made over the course of the growing season, starting approximately 45 days after crop emergence, with following applications at approximately 14 day intervals. Trials were conducted across five locations in Brazil.
Assessments of severity of infection from Phakopsora pachyrhizi were made at approximately weekly intervals, based on the percentage of leaf area covered by disease lesions. This is expressed in {Table B1} as a final % severity. The performance of the treatments were calculated as % reduction of the area under the disease pressure curve for the treated plots in the trial, based on assessments up to 28 days after the third application. Samples were taken from diseased leaves in the untreated plots and evaluated for the % population frequency of the F129L mutation that generates resistance to strobilurin fungicides.
Samples of leaves were taken from the untreated plots and DNA extracted from disease lesions. qPCR analysis was conducted to determine the frequency of F129L within the sampled pathogen population.

[1] abbreviates: Trial A, F129L frequency in untreated 94.33%, untreated severity 97.50%.
[2] abbreviates: Trial B, F129L frequency in untreated 93.67%, untreated severity 83.10%.
The mark [3] stands for this setting: Trial C, F129L frequency in untreated 93.00%, untreated severity 96.80%.
Setting [4] is: Trial D, F129L frequency in untreated 22.00%, untreated severity 74.2%.
The mark [5] stands for this setting: Trial E, F129L frequency in untreated 44.67%, untreated severity 95.00%.

`CO/C=C(\Oc1cc(C2CCCCC2)ccc1C)C(=O)OC` [compound X.04, methyl (Z)-2-(5-cyclohexyl-2-methyl-phenoxy)-3-methoxy-prop-2-enoate]: the “% control (% reduction of the area under the disease pressure curve)” value by setting is: under setting [1], 91.00%; under setting [2], 45.50%; under setting [3], 95.46%; under setting [4], 71.39%; under setting [5], 63.48%. For the same compound, the “performance compared to prothioconazole and to a commercial standard containing prothioconazole and a standard strobilurin fungicide” value (trials with a high (>90%) frequency of F129L in the untreated population) is on record as “superior”.

For `OC(Cc1ccccc1Cl)(Cn1nc[nH]c1=S)C1(Cl)CC1` (centres unmarked) [prothioconazole, reference compound], the “% control (% reduction of the area under the disease pressure curve)” value was 72.66% under setting [1]; 28.86% under setting [2]; 63.89% under setting [3]; 72.53% under setting [4]; 67.30% under setting [5].
